Legend:
[1] = test system: Septoria leaf blotch (Mycosphaerella graminicola); experiment: Test Example 3: growth of Septoria leaf blotch in YBG medium, microtiter plate, absorbance at 550 nm; format: cell-based; conditions: single use, 18° C., four days
Procedure: Each of the present compound 1-3 or the present compound 2 was dissolved into dimethyl sulfoxide such that each concentration of these compounds was adjusted to one hundred fifty times as much as the concentration indicated in the below-mentioned Table 3. The resultant agent solution was dispensed into each microtiter plate (with 96 wells) in 1 μl portion thereof per well. 149 μl of YBG medium to which conidia of Septoria leaf blotch (Mycosphaerella graminicola) was inoculated in advance (which was prepared by dissolving 10 g of yeast extract, 10 g of Bacto Peptone, and 20 mL of glycerol into 1 L of water, followed by sterilizing the medium) was dispensed into each of the well to which the agent solution was dispensed. The plate was cultivated at 18° C. for four days, thereby allowing Septoria leaf blotch (Mycosphaerella graminicola) to undergo proliferation, and the absorbance at 550 nm of each well of the microtiter plate was then measured to examine a degree of growth of Septoria leaf blotch (hereinafter referred to as “treated group”).
Whereas, Septoria leaf blotch was proliferated similarly to the case of the treated group except that dimethyl sulfoxide was used instead of the agent solution, and the degree of the growth was examined (hereinafter referred to as “untreated group”). The efficacy was calculated from each of the obtained degree of growth of the treated group and the untreated group respectively by the following “Equation 1”.
Efficacy (%)=100×(X−Y)/X Equation 1
X: Degree of growth of fungus in the untreated group
Y: Degree of growth of fungus in the treated group

[2] = test system: Brown rust (Puccinia recondita); experiment: Test Example 4: foliar spray on wheat, Brown rust lesion area; format: in vivo, Puccinia recondita on wheat (cultivar. Shirogane); conditions: single use, flowable, foliar spray one day before inoculation
Procedure: Five (5) parts of the present compound 1-3, 35 parts of a mixture of white carbon and ammonium polyoxyethylene alkyl ether sulfate (the weight ratio of 1:1) and […] of water were mixed, and the mixture was then finely-ground by a wet grinding method to obtain a flowable comprising the present compound 1-3. Separately, the flowable comprising the present compound 2 was prepared according to the above-mentioned similar method except that the […].
Each of the flowable comprising the present compound 1-3 and the flowable comprising the present compound 2 was diluted with water and if necessary, the resultant dilute solutions were mixed each other such that each concentration of the respective compounds in the dilution solution was adjusted to the concentration indicated in Table 4, to prepare the dilution solutions, respectively.
A plastic pot was filled with soil, and thereto wheat (cultivar. Shirogane) was seeded, and the plants were grown in a greenhouse for ten days. The above-mentioned dilution solutions were sprayed to foliar parts so as to adhere adequately onto the surfaces of leaves of the above wheats. After spraying the dilute solution, the plants were air-dried, and one day after the application, an aqueous suspension of uredospores of Brown rust (Puccinia recondita) was inoculated by spraying thereto. After the inoculation, the plants were placed at 27° C. under humid condition for one day, and were then cultivated under lighting for ten days, and a lesion area was examined (hereinafter referred to as “lesion area of treated group”).
Whereas, wheats were cultivated similarly to the treated group except that no foliage application of the above-mentioned agent solution was done, and Brown rust were inoculated, and the lesion area thereof was examined (hereinafter referred to as “lesion area of the untreated group”).
From each of the lesion area of the treated group and the untreated group, respectively, the efficacy of the treated group was calculated by the following Equation 2.
Efficacy (%)=[1−(lesion area of the treated group)/(lesion area of the untreated group)]×100 Equation 2

Compound | Efficacy (%) ([1]; concentration in medium 0.0001 ppm) | Efficacy (%) ([1]; concentration in medium 0.01 ppm) | Efficacy (%) ([2]; concentration in agent solution 0.002 ppm) | Efficacy (%) ([2]; concentration in agent solution 0.01 ppm) | Efficacy (%) ([1]; concentration in medium 0.001 ppm) | Efficacy (%) ([2]; concentration in agent solution 0.001 ppm) | Efficacy (%) ([2]; concentration in agent solution 0.02 ppm)
Cc1cccc(-n2nnn(C)c2=O)c1COc1ccn(-c2ccc(Cl)cc2)n1 [Present compound 1-3, 1-(2-{[1-(4-chlorophenyl)-1H-pyrazol-3-yl]oxymethyl}-3-methylphenyl)-4-methyl-1,4-dihydrotetrazol-5-one] | 20 | 37 | 35 | 70 |  |  | 
CC1CC(C)(C)c2c(F)ccc(NC(=O)c3cn(C)nc3C(F)F)c21 (stereo not shown) [Present compound 2] |  |  |  |  | 20 | 15 | 55

From patent US10537102B2, “Synergistic fungicidal composition for controlling plant diseases” (Sumitomo Chemical Company, Limited, priority 2016, dated 2020)
